# Literature values, collected in US20190000898A1, “COMBINING ADENOVIRUS AND CHEMOTHERAPEUTIC AGENTS FOR TREATING CANCER” (priority 2016, published 2019).
# Assays:
# unresectable MPM = details: patients; p=0.02
# [1] = test system: syngeneic pancreatic tumors; details: immune-competent hamsters
SMILES,median survival (unresectable MPM) [months],antitumor efficacy (tumor growth) [1]
N.N.[Cl][Pt][Cl] [Cisplatin],9,–
O=P1(N(CCCl)CCCl)NCCCO1 (centres unmarked) [cyclophosphamide],–,did not result in significant reduction of tumor growth
